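Following 48 hours of exposure in 96-well plates, responses at five concentrations were used to interpolate endpoints linearly. At the TGI there is no net growth.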

This is an account of results in PubChem BioAssay (NCI).

What all share (assay): inhibition of tumour cell growth, NCI panel, 48 h
Test [1] relates to ACHN renal.
Test [2] deals with MOLT-4 leukemia.
The test system of test [3] is UACC-257 melanoma.
In test [4] the test system is SK-MEL-2 melanoma.
Test [5] concerns SW-620 colon.
The subject of test [6] is OVCAR-8 ovarian.
The subject of test [7] is NCI/ADR-RES ovarian.
In test [8] the test system is M14 melanoma.
Test [9] concerns EKVX NSCLC.
Test [10] has as its system DU-145 prostate.
For test [11], the system named is SK-OV-3 ovarian.
The subject of test [12] is NCI-H23 lung.
Test [13] has as its system SN12C renal.
Test [14] concerns SNB-75 CNS.
Test [15] relates to SF-539 CNS.
Test [16] has as its system SR leukemia.

As to `CN1C/C(=C\c2cccs2)C(O)/C(=C/c2cccs2)C1` (centres undefined), the TGI in test [1] was more than 100 µM; in [2], 69.6 µM; in test [3], more than 100 µM; in test [4] it was more than 100 µM; in test [5], more than 100 µM; in test [6], more than 100 µM. In addition, the TGI in test [7], in [8], in test [9], in test [10], in [11] and in [12] was more than 100 µM in each case. In test [13], this compound had a TGI of more than 100 µM.
As to `CCOc1ccc2[nH]c3c(C)c4ccncc4c(C)c3c2c1`, the TGI was 2.25 µM in test [1]; 3.24 µM in test [3]; 2.48 µM in [4]; 3.1 µM in test [14]; 1.75 µM in [5]; 2.94 µM in test [15]. Further, the TGI in [8] came to 2.9 µM; in test [9] it was 2.9 µM; in test [11] it was 16.4 µM; in test [12] it was 3.01 µM; in [13], 1.93 µM.
Take `COc1ccc(C(=O)O[C@H]2[C@@H]3C=CO[C@@H](OC4OC(CO)C(O)C(O)C4O)[C@@H]3[C@@]3(CO)O[C@@H]23)cc1O` (some centres undefined): the TGI in test [1], in [2], in [3], in [4], in [14] and in test [5] was more than 100 µM in each case. For the same compound, the TGI in test [6], in test [15], in test [8], in test [9], in [11] and in test [12] was more than 100 µM in each case. In [13], this compound had a TGI of more than 100 µM.
Take `O=C(/C=C/c1ccc(-c2ccccc2)cc1)NCc1ccc(C(=O)NCc2ccccc2)cc1`: the TGI in [1], in test [3], in test [4], in test [14], in [5] and in [6] was more than 100 µM each time. Moreover, the TGI in test [7], in test [15], in test [8], in [9], in test [10] and in [11] was more than 100 µM in each case. For the same compound, the TGI in test [12] and in test [13] was more than 100 µM in each case.
Consider `CCOC(=O)c1[nH]c(-c2[nH]c(-c3[nH]c(-c4[nH]c(C(=O)OCC)c(C)c4C(=O)OCC)c(C(=O)OCC)c3C)c(C)c2C(=O)OCC)c(C(=O)OCC)c1C`, for which the TGI in test [1], in test [2], in test [3], in [4], in test [5] and in test [6] was more than 100 µM throughout. Besides, the TGI in [7], in [15], in test [8], in test [9], in test [10] and in test [11] was more than 100 µM throughout. In addition, the TGI in [12] and in test [13] was more than 100 µM in each case.
Take `NC(=S)/N=C(/c1nc2ccc(Cl)cc2[nH]c1=O)C(O)c1ccccc1Cl` (centres undefined): the TGI in test [1], in [2], in test [3], in test [4], in test [14] and in test [5] was more than 100 µM in each case. For the same compound, the TGI in test [6], in test [15], in test [8], in test [9], in test [11] and in test [12] was more than 100 µM throughout.
As for `Cc1c2ccncc2cc2c1[nH]c1ccccc12`, the TGI in test [2] is 6.59 µM; in test [3], 13.5 µM; in test [4], 23.2 µM; in [14] it was 17 µM; in [5], 4.68 µM; in [6] it was 16.2 µM. The TGI was more than 56.4 µM in test [7]; 5.17 µM in test [15]; 16.3 µM in test [9]; 26.1 µM in [11]; 15.9 µM in test [12]; 9.12 µM in test [13].
As for `CN(C)c1ccc(C=NCC2CCCN3CCCCC23)cc1` (centres undefined), the TGI in test [1], in [3], in test [14], in test [6], in test [7] and in test [8] was more than 100 µM each time. Moreover, the TGI in test [9], in [10], in [11] and in [12] was more than 100 µM throughout.
Regarding `O=S(=O)(O)c1cc(N=Nc2c(O)ccc3ccccc23)ccc1/C=C/c1ccc(N=Nc2c(O)ccc3ccccc23)cc1S(=O)(=O)O`, the TGI in [1], in test [3], in test [4], in test [14], in [5] and in [6] was more than 100 µM each time. The TGI in test [7], in test [8], in [9], in [11], in [12] and in [13] was more than 100 µM throughout.
For the compound `NC1=C(NC(=O)Cc2ccccc2F)C(=O)c2ccccc2C1=O`, the TGI in [1] was more than 100 µM; in [2] it was more than 100 µM; in [3], more than 100 µM; in test [4], more than 100 µM; in [14], 62.6 µM; in test [5], more than 100 µM. Further, the TGI in test [6] is more than 100 µM; in test [15], 62 µM; in test [8], more than 100 µM; in test [9] it was more than 100 µM; in [12] it was more than 100 µM; in test [13], more than 100 µM.
In the case of `CCC1(N=[N+]=[N-])C(=O)c2ccccc2N(C)C1=O` (centres undefined), the TGI in test [1], in [2], in test [3], in test [4], in test [14] and in [16] was more than 100 µM in each case. Besides, the TGI in [5], in [6], in test [15], in test [8], in test [9] and in [11] was more than 100 µM throughout. The TGI in test [12] and in test [13] was more than 100 µM in each case.
Regarding `[N-]=[N+]=NC(c1cn(C2CC(O)C(CO)O2)c(=O)[nH]c1=O)C(Br)Br` (centres undefined), the TGI in test [1], in test [2], in test [4], in test [14], in test [16] and in test [5] was more than 100 µM in each case. Also, the TGI in [6], in test [15], in test [8], in test [9], in [11] and in test [12] was more than 100 µM in each case. Also, in test [13], the TGI was more than 100 µM.
In the case of `O=C1C(Br)=C(c2ccccc2)O/C1=C/C(=O)c1ccc(Br)cc1`, the TGI is more than 100 µM in test [1]; more than 100 µM in test [2]; more than 100 µM in test [14]; more than 100 µM in test [16]; 47.3 µM in test [5]; 81.1 µM in test [6]. In addition, the TGI is more than 100 µM in test [15]; more than 100 µM in test [8]; more than 100 µM in test [9]; more than 100 µM in test [10]; more than 100 µM in [12]; 26.9 µM in test [13].
In the case of `Brc1ccc(C[P+]2(c3ccccc3)CCCCC2)cc1`, the TGI in test [1] was more than 100 µM; in test [2], more than 100 µM; in [3] it was 73.8 µM; in [4], more than 100 µM; in [14], 77.1 µM; in test [16] it was more than 100 µM. Moreover, the TGI in test [5], in test [6], in test [15], in test [8], in test [9] and in test [11] was more than 100 µM each time. The TGI in test [12] and in [13] was more than 100 µM throughout.
As to `COc1ccc(C(c2c(O)c3ccccc3n(-c3ccccc3)c2=O)c2c(O)c3ccccc3n(-c3ccccc3)c2=O)cc1`, the TGI in test [1], in test [2], in test [4], in [16], in [5] and in test [15] was more than 100 µM in each case. Besides, the TGI in test [9], in [12] and in [13] was more than 100 µM in each case.
With `C/C=C(/I)CBr`, the TGI in test [1] came to 45.5 µM; in test [2] it was 55.9 µM; in [4], 28.4 µM; in test [5], 36.6 µM; in test [6], 45.4 µM; in test [15], 32.5 µM. Further, the TGI amounted to 28.7 µM in [8]; 49 µM in [9]; 64.7 µM in test [11]; 31.4 µM in test [12]; 34.1 µM in test [13].
Turning to `CN(C(=O)C12C3C4C5C3C1(C(=O)C13C6C7C8C6C1C8C73)C5C42)C(C)(C)C` (centres undefined), the TGI in test [1], in test [2], in test [3], in test [4], in [14] and in test [16] was more than 50 µM throughout. In addition, the TGI in test [5] is more than 34 µM; in test [6], more than 50 µM; in [15] it was more than 50 µM; in test [8] it was more than 50 µM; in test [9] it was more than 50 µM; in test [11], more than 50 µM. In addition, the TGI in test [12] and in [13] was more than 50 µM each time.
For `CCOC(=O)c1nnsc1N/N=C\c1ccc([N+](=O)[O-])cc1`, the TGI in test [1], in test [2], in test [3], in test [4], in test [14] and in test [5] was more than 100 µM throughout. Besides, the TGI in [6], in test [7], in [8], in test [9], in test [10] and in test [11] was more than 100 µM in each case. Further, the TGI in test [12] and in test [13] was more than 100 µM throughout.
Consider `COc1ccc(N=NC(C(=O)c2ccccc2)C(=O)c2ccccc2)cc1`, for which the TGI was 86.1 µM in test [1]; 72.2 µM in test [2]; more than 100 µM in test [3]; 61.2 µM in test [4]; 74.8 µM in [14]; more than 100 µM in [5]. Also, the TGI in test [6] is more than 100 µM; in test [15], 84.9 µM; in [8], 33.4 µM; in test [9], 71.1 µM; in test [11], 96 µM; in test [12] it was 65.3 µM. This compound returned a TGI in [13] of 78.8 µM.
On to `N#CN/C(N)=N/C/N=C(\N)NC#N`, for which the TGI in [1] was more than 100 µM; in test [2], more than 100 µM; in test [3], more than 100 µM; in test [4] it was more than 100 µM; in [14], more than 100 µM; in test [16], 93.5 µM. For the same compound, the TGI in [5] was 36 µM; in test [6], more than 100 µM; in test [15] it was more than 100 µM; in test [8] it was more than 100 µM; in test [9], more than 100 µM; in test [11], more than 100 µM. Besides, the TGI in test [12] and in test [13] was more than 100 µM each time.
For the compound `CS(=O)(=O)c1nc(-c2cc3c(c(S(C)(=O)=O)n2)CCCC3)cc2c1CCCCC2`, the TGI in test [1], in test [3], in test [4], in [14], in [5] and in test [6] was more than 100 µM each time. The TGI in [7], in test [8], in test [9], in [10], in [11] and in test [12] was more than 100 µM throughout. Also, the TGI in test [13] was more than 100 µM.
